Assay results published in patent US6251900A, “Heterocyclic compounds and antitumor agent containing the same as active ingredient” (Zenyaku Kogyo Kabushiki Kaisha, priority 1997, dated 2001).
Structures can show the parent of a compound that is named as a salt.

tested on: M5076 mouse reticulum cell sarcoma cells; assay: Tumor growth inhibition, M5076 mouse reticulum cell sarcoma transplanted subcutaneously in BDF1 mice (Test 2); assay type: in vivo; settings: 70 mg/kg, abdominally administered for 9 days, tumor weight on day 21
Protocol: The treated group to which the test sample was administered consisted of seven mice while the control group consisted of ten mice. Six weeks old male mice (BDF1, 25±2.5 g) were employed as host animals.
M5076 mouse reticulum cell sarcoma cells routinely cultured in abdominal of C57BL/6 male mice were diluted with cold Hanks solution and 1.0×10^6 cells of them were transplanted subcutaneously into left breast of each mouse. The samples prepared by suspending test compounds in 1% hydroxypropyl cellulose (HPC) were abdominally administered for 9 days after the day after the transplantation. After 21 days passed from the transplantation of the tumor, the mice were killed and the tumors were extracted out to measure the tumor weights of the respective groups.
Effect of sample was calculated as tumor growth inhibition by the following formula:
Tumor Growth Inhibition (%)=(1-T/C)×100
T: tumor weight of group with sample administered
C: tumor weight of control group

In the case of `c1cn(-c2nc(N3CCOCC3)nc(N3CCOCC3)n2)cn1` [compound A, 2-(imidazol-1-yl)-4,6-dimorpholino-1,3,5-triazine, reference compound], the “Tumor Growth Inhibition (%)” value is reported as 5.0%.

same assay, conditions: 100 mg/kg, abdominally administered for 9 days, tumor weight on day 21

For `CN(C)c1nc(N(C)C)nc(N(C)C)n1` [compound B, hexamethylmelamine, reference compound], the “Tumor Growth Inhibition (%)” value was 38.8%.

same assay, conditions: 200 mg/kg, abdominally administered for 9 days, tumor weight on day 21

Point of comparison: `CC1(C)CN(c2nc(N3CCOCC3)nc(-n3cnc4ccccc43)n2)CCO1` [compound 11, 2-(benzimidazol-1-yl)-4-(2,2-dimethylmorpholino)-6-morpholino-1,3,5-triazine], “Tumor Growth Inhibition (%)” value 88.3%. Against it:
- C[C@@H]1CN(c2nc(N3CCOCC3)nc(-n3cnc4ccccc43)n2)C[C@H](C)O1 [compound 1, 2-(benzimidazol-1-yl)-4-(cis-2,6-dimethyl-morpholino)-6-morpholino-1,3,5-triazine] — higher, 94.7%
- C[C@@H]1CN(c2cc(N3CCOCC3)nc(-n3cnc4ccccc43)n2)C[C@H](C)O1 [compound 19, 2-(benzimidazol-1-yl)-4-(cis-2,6-dimethyl-morpholino)-6-morpholinopyrimidine] — higher, 98.1%

tested on: MCF-7 cells; assay: Growth inhibition of MCF-7 human breast cancer cells, 72 h culture (Test 1); assay type: cell-based; settings: MCF7, 37° C., read-out: 50% Growth inhibition concentrations (GI50)
Protocol: Used in the test were MCF-7 cells which were established from human breast cancer and were cultured routinely under the conditions of 37° C. and 5% CO2, in RPMI 1640 medium supplemented with 10% fetal calf serum, HEPES buffer solution (25 mM) and kanamycin (0.1 mg/ml). Single cell suspension was prepared by adding trypsin/EDTA to the medium so as to be adjusted to 4.0×10^4 cells/ml. Test compounds were dissolved or suspended in DMSO or RPMI 1640 medium at a concentration of 1.0×10^-4 -1.0×10^-9 M.
The cell suspension and the sample solution or suspension were filled in a 96-wells microplate at a rate of 0.1 ml of the former and 0.1 ml of the latter per well and cultured at 37° C. for 72 hours in 5% CO2.
50% Growth inhibition concentrations (GI50 μM) were calculated from growth inhibitions at various sample concentrations.

Point of comparison: `c1cn(-c2nc(N3CCOCC3)nc(N3CCOCC3)n2)cn1` [compound A, 2-(imidazol-1-yl)-4,6-dimorpholino-1,3,5-triazine, reference compound], GI50 20 µM. Against it:
- CC(C)(C)OC(=O)NCC1CN(c2cc(N3CCOCC3)nc(-n3cnc4ccccc43)n2)CCO1 (centres unmarked) [compound 25, 2-(benzimidazol-1-yl)-4-[2-(tert-butoxycarbonylamino-methyl)morpholino]-6-morpholinopyrimidine] — 5-fold lower, 4 µM
- CC(=O)OC1CCN(c2nc(N3CCOCC3)nc(-n3cnc4ccccc43)n2)CC1 [compound 38, 2-(4-acetoxypiperidino)-4-(benzimidazol-1-yl)-6-morpholino-1,3,5-triazine] — 3.1-fold lower, 6.5 µM
- FCC1CN(c2nc(N3CCOCC3)nc(-n3cnc4ccccc43)n2)CCO1 (centres unmarked) [compound 32, 2-(benzimidazol-1-yl)-4-(2-fluoromethylmorpholino)-6-morpholino-1,3,5-triazine] — 5.1-fold lower, 3.9 µM
- N#Cc1nc(N2CCOCC2)nc(-n2cnc3ccccc32)n1 [compound 4, 2-(benzimidazol-1-yl)-4-cyano-6-morpholino-1,3,5-triazine] — 5.3-fold lower, 3.8 µM
- c1ccc2c(c1)ncn2-c1nc(N2CCOCC2)nc(N2CCOCC2)n1 [compound 2, 2-(benzimidazol-1-yl)-4,6-dimorpholino-1,3,5-triazine] — 6.1-fold lower, 3.3 µM
- C[C@@H]1CN(c2nc(N3CCOCC3)nc(-n3cnc4ccccc43)n2)C[C@H](C)O1 [compound 1, 2-(benzimidazol-1-yl)-4-(cis-2,6-dimethyl-morpholino)-6-morpholino-1,3,5-triazine] — 6.9-fold lower, 2.9 µM
- Cc1nc2ccccc2n1-c1nc(N2CCOCC2)nc(N2CCOCC2)n1 [compound 3, 2-(2-methylbenzimidazol-1-yl)-4,6-dimorpholino-1,3,5-triazine] — 5.4-fold lower, 3.7 µM
- c1ccc2c(c1)ncn2-c1nc(N2CCOCC2)cc(N2CCSCC2)n1 [compound 23, 2-(benzimidazol-1-yl)-4-morpholino-6-thiomorpholino-pyrimidine] — 5.1-fold lower, 3.9 µM
- CN(C)c1nc(N(C)C)nc(N(C)C)n1 [compound B, hexamethylmelamine, reference compound] — higher, > 100 µM
- c1ccc2c(c1)ncn2-c1nc(N2CCOCC2)cc(N2CCOCC2)n1 [compound 43, 2-(benzimidazol-1-yl)-4,6-dimorpholinopyrimidine] — 4.7-fold lower, 4.3 µM
- OCC1CN(c2nc(N3CCOCC3)nc(-n3cnc4ccccc43)n2)CCO1 (centres unmarked) [compound 34, 2-(benzimidazol-1-yl)-4-(2-hydroxymethylmorpholino)-6-morpholino-1,3,5-triazine] — 3.4-fold lower, 5.8 µM
- C[C@@H]1CN(c2nc(N3CCO[C@@H](C)[C@H]3C)nc(-n3cnc4ccccc43)n2)C[C@H](C)O1 (relative stereo) [compound 8, 2-(benzimidazol-1-yl)-4-(cis-2,3-dimethylmorpholino)-6-(cis-2,6-dimethylmorpholino)-1,3,5-triazine] — 5.1-fold lower, 3.9 µM
- CCN(CCN1CCOCC1)c1nc(N2CCOCC2)nc(-n2cnc3ccccc32)n1 [compound 49, 2-(benzimidazol-1-yl)-4-(N-ethyl-N-2-morpholinoethyl)amino-6-morpholino-1,3,5-triazine] — 4-fold lower, 5 µM
- CN(C)c1nc(N(C)C)nc(N(C)CO)n1 [compound C, hydroxymethylpentamethylmelamine, reference compound] — higher, > 50 µM
- FC(F)(F)C1CN(c2nc(N3CCOCC3)nc(-n3cnc4ccccc43)n2)CCO1 (centres unmarked) [compound 6, 2-(benzimidazol-1-yl)-4-morpholino-6-(2-trifluoro-methylmorpholino)-1,3,5-triazine] — 2.8-fold lower, 7.2 µM
- c1ccc2c(c1)ncn2-c1cc(N2CCOCC2)nc(-n2cnc3ccccc32)n1 [compound 44, 2,4-di(benzimidazol-1-yl)-6-morpholinopyrimidine] — 6.5-fold lower, 3.1 µM
- CCC1CN(c2nc(N3CCOCC3)nc(-n3cnc4ccccc43)n2)CCO1 (centres unmarked) [compound 12, 2-(benzimidazol-1-yl)-4-(2-ethylmorpholino)-6-morpholino-1,3,5-triazine] — 5.1-fold lower, 3.9 µM
- CC1(C)CN(c2nc(N3CCOCC3)nc(-n3cnc4ccccc43)n2)CCO1 [compound 11, 2-(benzimidazol-1-yl)-4-(2,2-dimethylmorpholino)-6-morpholino-1,3,5-triazine] — 12-fold lower, 1.7 µM
- C[C@H]1CN(c2cc(N3CCOCC3)nc(-n3cnc4ccccc43)n2)C[C@H](C)O1 (relative stereo) [compound 20, 2-(benzimidazol-1-yl)-4-(trans-2,6-dimethylmorpholino)-6-morpholinopyrimidine] — 7.1-fold lower, 2.8 µM
- Cc1cc2ncn(-c3nc(N4CCOCC4)nc(N4CCOCC4)n3)c2cc1C [compound 30, 2-(5,6-dimethylbenzimidazol-1-yl)-4,6-dimorpholino-1,3,5-triazine] — 5.4-fold lower, 3.7 µM
- CC1CN(c2nc(N3CCOCC3)nc(-n3cnc4ccccc43)n2)CCO1 (centres unmarked) [compound 16, 2-(benzimidazol-1-yl)-4-(2-methylmorpholino)-6-morpholino-1,3,5-triazine] — 4.2-fold lower, 4.8 µM
- CN(Cc1ccccc1)CC1CN(c2nc(N3CCOCC3)nc(-n3cnc4ccccc43)n2)CCO1 (centres unmarked) [compound 31, 2-(benzimidazol-1-yl)-4-[2-(N-benzyl-N-methylamino-methyl)morpholino]-6-morpholino-1,3,5-triazine] — 2.9-fold lower, 6.8 µM
- OC1CCCN(c2nc(N3CCOCC3)nc(-n3cnc4ccccc43)n2)C1 (centres unmarked) [compound 36, 2-(benzimidazol-1-yl)-4-(3-hydroxypiperidino)-6-morpholino-1,3,5-triazine] — 5.1-fold lower, 3.9 µM
- C[C@@H]1CN(c2cc(N3CCOCC3)nc(-n3cnc4ccccc43)n2)C[C@H](C)O1 [compound 19, 2-(benzimidazol-1-yl)-4-(cis-2,6-dimethyl-morpholino)-6-morpholinopyrimidine] — 6.2-fold lower, 3.2 µM
- NCCCCC1CCCN(c2nc(N3CCOCC3)nc(-n3cnc4ccccc43)n2)C1 (centres unmarked) [compound 53, hydrochloride of 2-[3-(4-aminobutyl)piperidino]-4-(benzimidazol-1-yl)-6-morpholino-1,3,5-triazine] — 3.8-fold lower, 5.2 µM
- C[C@H]1CN(c2nc(N3CCOCC3)nc(-n3cnc4ccccc43)n2)C[C@H](C)O1 (relative stereo) [compound 14, 2-(benzimidazol-1-yl)-4-(trans-2,6-dimethylmorpholino)-6-morpholino-1,3,5-triazine] — 8.7-fold lower, 2.3 µM
- OCCN(CCO)c1nc(N2CCOCC2)nc(-n2cnc3ccccc32)n1 [compound 42, 2-(benzimidazol-1-yl)-4-[N,N-di(2-hydroxyethyl)amino]-6-morpholino-1,3,5-triazine] — 4.3-fold lower, 4.6 µM
- c1ccc2c(c1)ncn2-c1nc(N2CCOCC2)nc(N2CCC3(CC2)OCCO3)n1 [compound 48, 2-(benzimidazol-1-yl)-4-[1,4-dioxa-8-azaspiro[4,5]decan-8-yl)-6-morpholino-1,3,5-triazine] — 4-fold lower, 5 µM
- c1ccc2c(c1)ncn2-c1cc(N2CCOCC2)nc(N2CCOCC2)n1 [compound 45, 4-(benzimidazol-1-yl)-2,6-dimorpholinopyrimidine] — 4.3-fold lower, 4.6 µM
- Cc1nc2ccccc2n1-c1nc(N2CCOCC2)nc(N2C[C@@H](C)O[C@@H](C)C2)n1 [compound 33, 4-(cis-2,6-dimethylmorpholino)-2-(2-methylbenzimidazol-1-yl)-6-morpholino-1,3,5-triazine] — 6.2-fold lower, 3.2 µM
- C[C@@H]1OCCN(c2nc(N3CCOCC3)nc(-n3cnc4ccccc43)n2)[C@@H]1C (relative stereo) [compound 7, 2-(benzimidazol-1-yl)-4-(cis-2,3-dimethylmorpholino)-6-morpholino-1,3,5-triazine] — 20-fold lower, 1 µM
- C[C@@H]1OCCN(c2cc(N3CCOCC3)nc(-n3cnc4ccccc43)n2)[C@@H]1C (relative stereo) [compound 21, 2-(benzimidazol-1-yl)-4-(cis-2,3-dimethylmorpholino)-6-morpholinopyrimidine] — 18-fold lower, 1.1 µM
- c1ccc2c(c1)ncn2-c1cc(-n2cnc3ccccc32)nc(N2CCOCC2)n1 [compound 46, 4,6-di(benzimidazol-1-yl)-2-morpholinopyrimidine] — 4.7-fold lower, 4.3 µM
- Brc1c(N2CCOCC2)nc(-n2cnc3ccccc32)nc1N1CCOCC1 [compound 47, 2-(benzimidazol-1-yl)-5-bromo-4,6-dimorpholinopyrimidine] — 5.6-fold lower, 3.6 µM
- CC(C)(C)OC(=O)NCC1CN(c2nc(N3CCOCC3)nc(-n3cnc4ccccc43)n2)CCO1 (centres unmarked) [compound 18, 2-(benzimidazol-1-yl)-4-[2-(tert-butoxycarbonylamino-methyl)morpholino]-6-morpholino-1,3,5-triazine] — 3.2-fold lower, 6.3 µM
